Calls of active or inactive are those of the source. The rule behind the calls is not given here.
Legend:
[1] = molecular target: T1, Peroxisome proliferator-activated receptor gamma (Homo sapiens, UniProt P37231)
T1 sequence (P37231 whole entry): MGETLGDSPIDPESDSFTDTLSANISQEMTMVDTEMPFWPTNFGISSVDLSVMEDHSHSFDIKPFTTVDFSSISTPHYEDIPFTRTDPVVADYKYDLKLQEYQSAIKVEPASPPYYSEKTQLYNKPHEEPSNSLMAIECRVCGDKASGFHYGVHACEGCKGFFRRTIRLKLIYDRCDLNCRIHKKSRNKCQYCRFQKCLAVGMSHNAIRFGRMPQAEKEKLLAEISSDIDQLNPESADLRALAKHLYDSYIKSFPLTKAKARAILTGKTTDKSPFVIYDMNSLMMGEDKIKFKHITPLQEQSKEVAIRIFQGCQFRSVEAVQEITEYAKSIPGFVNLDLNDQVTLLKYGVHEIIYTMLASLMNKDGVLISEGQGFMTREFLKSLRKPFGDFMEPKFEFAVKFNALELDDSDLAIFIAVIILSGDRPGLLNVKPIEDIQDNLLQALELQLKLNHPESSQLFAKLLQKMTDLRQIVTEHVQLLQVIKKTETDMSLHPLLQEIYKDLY

[2] = molecular target: T2, Peroxisome proliferator-activated receptor delta (Homo sapiens, UniProt Q03181)
T2 sequence (Q03181 whole entry): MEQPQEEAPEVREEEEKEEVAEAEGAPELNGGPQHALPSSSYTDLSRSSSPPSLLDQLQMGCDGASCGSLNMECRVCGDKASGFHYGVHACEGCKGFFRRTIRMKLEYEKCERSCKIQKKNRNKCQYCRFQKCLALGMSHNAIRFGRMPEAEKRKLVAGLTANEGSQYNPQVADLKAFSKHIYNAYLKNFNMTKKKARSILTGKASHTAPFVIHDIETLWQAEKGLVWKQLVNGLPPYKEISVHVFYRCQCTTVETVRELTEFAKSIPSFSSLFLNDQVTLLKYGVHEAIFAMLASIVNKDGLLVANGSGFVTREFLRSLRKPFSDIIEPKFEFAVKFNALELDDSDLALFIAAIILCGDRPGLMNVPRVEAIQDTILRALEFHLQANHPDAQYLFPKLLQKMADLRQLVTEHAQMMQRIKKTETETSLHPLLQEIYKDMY

[3] = molecular target: T3, Peroxisome proliferator-activated receptor alpha (Homo sapiens, UniProt Q07869); experiment: Binding affinity against Peroxisome Proliferator activated receptor alpha (PPAR alpha); Not active
T3 sequence (Q07869 whole entry): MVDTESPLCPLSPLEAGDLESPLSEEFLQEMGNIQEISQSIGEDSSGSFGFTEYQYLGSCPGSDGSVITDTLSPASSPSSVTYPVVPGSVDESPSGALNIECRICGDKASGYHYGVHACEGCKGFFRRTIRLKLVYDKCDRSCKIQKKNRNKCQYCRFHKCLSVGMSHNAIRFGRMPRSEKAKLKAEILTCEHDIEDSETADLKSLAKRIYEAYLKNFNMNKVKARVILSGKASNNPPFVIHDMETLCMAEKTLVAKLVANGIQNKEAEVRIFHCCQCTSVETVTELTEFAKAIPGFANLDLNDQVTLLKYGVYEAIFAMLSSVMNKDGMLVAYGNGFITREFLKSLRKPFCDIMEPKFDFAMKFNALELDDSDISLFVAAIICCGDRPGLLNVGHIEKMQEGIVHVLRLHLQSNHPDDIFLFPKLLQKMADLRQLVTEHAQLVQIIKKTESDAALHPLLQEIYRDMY

[4] = molecular target: T1, Peroxisome proliferator-activated receptor gamma; remark: listed apart in the source
[5] = Pharmacokinetic property (oral bioavailability) in rat (dose given as a solution); format: ADME, organism-based; details: in vivo
[6] = molecular target: T1, Peroxisome proliferator-activated receptor gamma; experiment: Inhibitory concentration of the PPAR gamma)
[7] = molecular target: T1, Peroxisome proliferator-activated receptor gamma; experiment: Binding affinity against human Peroxisome proliferator activated receptor gamma (PPAR gamma)
[8] = Pharmacokinetic property (oral bioavailability) in rat (dose given as a suspension); format: ADME, organism-based; details: in vivo
[9] = Pharmacokinetic property (half life) in rat; format: ADME, organism-based; details: in vivo
[10] = Pharmacokinetic property (total body clearance) in rat; format: ADME, organism-based; details: in vivo, read-out: CLtotal
[11] = molecular target: T4, Peroxisome proliferator-activated receptor gamma (Homo sapiens) (UniProt P37231); experiment: Transcriptional activation of peroxisome proliferator activated receptor gamma activity; Inactive at 10e-4 M; format: functional
T4 sequence (whole entry): T1 sequence (P37231 whole entry)

[12] = molecular target: T4, Peroxisome proliferator-activated receptor gamma (Homo sapiens); experiment: Binding affinity against Peroxisome proliferator activated receptor gamma (PPAR gamma); Inactive at 10e-4 M

Row | Compound | EC50 [1] [nM] | Ki [2] | Ki [3] | Ki [4] [nM] | also measured
1 | COc1ccc(CCc2c(-c3ccccc3)[nH]c3ccc(CC(=O)O)cc23)cc1 | 43.7 | Not Active | Not Active | 47.9 | bioavailability [5]: 78%; IC50 [6]: 50 nM; Ki [7]: 50 nM; bioavailability [8]: 73%; half-life [9]: 3.8 h; clearance [10]: 3 mL/min/kg
2 | CCc1ccc(CCOc2ccc(CC3SC(=O)NC3=O)cc2)nc1 (stereo unspecified) [PIOGLITAZONE] | – | Not Active | Not Active | – | –
3 | O=C(O)Cc1ccc2[nH]c(-c3ccccc3)c(Cc3ccccc3)c2c1 | > 10000 | Not Active | Not Active | – | Log Ki [12]: inactive
4 | O=C(O)Cc1ccc2[nH]c(-c3ccccc3)c(CCc3ccccc3)c2c1 | 309 | Not Active | Not Active | – | –
5 | O=C1CSC(=O)N1Cc1ccc2[nH]c(-c3ccccc3)c(CCc3ccccc3)c2c1 | > 10000 | Not Active | Not Active | – | –
6 | CN(CCOc1ccc(CC2SC(=O)NC2=O)cc1)c1ccccn1 (stereo unspecified) [ROSIGLITAZONE] | – | – | Not Active | – | –
7 | Cc1c(C)c2c(c(C)c1O)CCC(C)(COc1ccc(CC3SC(=O)NC3=O)cc1)O2 (stereo unspecified) [TROGLITAZONE] | – | Not Active | Not Active | – | –

More lines, main results first:

Row | EC50 [1] [nM] | Ki [2] | Ki [3] | Ki [4] [nM] | Compound | also measured
8 | > 10000 | Not Active | Not Active | > 10000 | O=C(O)Cc1ccc2[nH]c(-c3ccccc3)c(-c3ccccc3)c2c1 | –
9 | > 10000 | Not Active | Not Active | – | CCCc1c(-c2ccccc2)[nH]c2ccc(C(=O)O)cc12 | –
10 | – | Not Active | Not Active | – | O=C(O)Cc1ccc2[nH]c(-c3ccccc3)cc2c1 | Log EC50 [11]: inactive
11 | 339 | Not Active | Not Active | 490 | O=C(O)Cc1ccc2[nH]c(-c3ccc(F)cc3)c(CCc3ccc(F)cc3)c2c1 | –
12 | > 10000 | Not Active | Not Active | > 10000 | O=C(O)Cc1ccc2[nH]cc(CCc3ccccc3)c2c1 | –
13 | > 10000 | Not Active | Not Active | – | Cn1c(-c2ccccc2)c(CCc2ccccc2)c2cc(OCC(=O)O)ccc21 | –
14 | 3020 | Not Active | Not Active | – | O=C(O)CCc1ccc2[nH]c(-c3ccccc3)c(CCc3ccccc3)c2c1 | –
15 | 7080 | Not Active | Not Active | – | CCCc1c(-c2ccccc2)[nH]c2ccc(CC(=O)O)cc12 | –
16 | 5620 | Not Active | Not Active | 550 | Cn1c(-c2ccccc2)c(CCc2ccccc2)c2cc(CC(=O)O)ccc21 | –

— ChEMBL document CHEMBL1132133, “Synthesis and biological activity of a novel series of indole-derived PPARgamma agonists” (Bioorg Med Chem Lett, 1999)
